# Source: patent publication US20240033263A1, “COMBINATION OF ALDOSE REDUCTASE INHIBITORS AND PROBENECID FOR THE TREATMENT OF DIABETIC COMPLICATIONS” (priority 2021, published 2024)
# Where two headings read alike, the source gives them in different places.
# Legend:
# [1] = cited from earlier work
# [2] = humans, oral route; cited from earlier work
# [3] = humans; cited from earlier work
# [4] = target: T1, transient receptor potential vanilloid 2 (TRPV2) channel (Homo sapiens, UniProt Q9Y5S1); settings: cited from earlier work
# T1 sequence (Q9Y5S1 1-764): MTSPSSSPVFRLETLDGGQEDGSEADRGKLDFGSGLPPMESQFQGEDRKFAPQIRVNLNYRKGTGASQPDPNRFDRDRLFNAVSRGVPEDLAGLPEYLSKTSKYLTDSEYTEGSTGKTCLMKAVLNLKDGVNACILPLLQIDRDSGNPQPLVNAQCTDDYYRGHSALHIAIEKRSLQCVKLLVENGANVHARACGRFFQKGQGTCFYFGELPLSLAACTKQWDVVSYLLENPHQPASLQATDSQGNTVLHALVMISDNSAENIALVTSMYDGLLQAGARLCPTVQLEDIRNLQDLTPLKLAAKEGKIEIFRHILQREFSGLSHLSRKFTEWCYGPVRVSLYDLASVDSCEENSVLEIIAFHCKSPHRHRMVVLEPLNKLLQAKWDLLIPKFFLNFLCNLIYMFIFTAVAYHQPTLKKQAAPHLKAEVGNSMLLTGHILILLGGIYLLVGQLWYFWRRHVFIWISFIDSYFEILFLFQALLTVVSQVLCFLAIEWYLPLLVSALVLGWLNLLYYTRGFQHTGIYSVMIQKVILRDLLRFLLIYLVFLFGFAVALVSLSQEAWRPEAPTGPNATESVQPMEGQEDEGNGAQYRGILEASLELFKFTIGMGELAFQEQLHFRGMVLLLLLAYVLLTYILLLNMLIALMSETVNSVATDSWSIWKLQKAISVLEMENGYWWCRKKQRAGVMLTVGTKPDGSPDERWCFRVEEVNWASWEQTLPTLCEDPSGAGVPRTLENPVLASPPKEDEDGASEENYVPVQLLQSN
# [5] = target: T2, TRPV2 (Mus musculus, UniProt Q9WTR1); settings: cited from earlier work
# T2 construct: TRPV2 is expressed in the murine heart; host or cells: murine heart (in vitro and in vivo)
# T2 sequence (Q9WTR1 1-756): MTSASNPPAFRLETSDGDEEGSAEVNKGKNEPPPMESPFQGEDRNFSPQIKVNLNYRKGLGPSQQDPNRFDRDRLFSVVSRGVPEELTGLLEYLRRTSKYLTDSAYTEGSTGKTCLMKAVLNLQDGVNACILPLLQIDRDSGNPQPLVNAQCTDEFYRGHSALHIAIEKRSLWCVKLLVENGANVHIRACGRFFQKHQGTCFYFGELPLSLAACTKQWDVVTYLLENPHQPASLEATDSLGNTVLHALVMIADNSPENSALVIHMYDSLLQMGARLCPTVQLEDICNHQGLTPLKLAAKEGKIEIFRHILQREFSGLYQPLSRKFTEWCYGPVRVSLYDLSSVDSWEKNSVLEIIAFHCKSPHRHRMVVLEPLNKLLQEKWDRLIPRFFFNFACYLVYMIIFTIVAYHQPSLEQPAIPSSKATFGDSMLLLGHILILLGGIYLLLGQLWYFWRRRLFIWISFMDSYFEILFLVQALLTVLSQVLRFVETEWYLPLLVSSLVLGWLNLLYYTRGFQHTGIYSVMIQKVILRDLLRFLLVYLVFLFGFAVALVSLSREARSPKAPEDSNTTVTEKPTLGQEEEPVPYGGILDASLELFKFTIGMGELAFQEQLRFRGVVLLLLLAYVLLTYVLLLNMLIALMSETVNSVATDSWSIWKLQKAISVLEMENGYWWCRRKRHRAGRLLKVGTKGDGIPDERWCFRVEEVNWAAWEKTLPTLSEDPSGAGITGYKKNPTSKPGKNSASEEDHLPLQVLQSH
# [6] = animal model, cited from earlier work
# [7] = non-diabetic patients with heart failure with reduced ejection fraction; cited from earlier work
# [8] = mouse model of peripartum cardiomyopathy; cited from earlier work
# [9] = water; cited from earlier work
# [10] = ARI i.v. with probenecid i.p., Sprague-Dawley rats; cited from earlier work
# [11] = parameters: species or system humans; settings: in vivo
# From the text: AT-001 is in clinical development by Applied Therapeutics for treatment of diabetic cardiomyopathy (American Heart Association 2019 Abstract Mo-2278). […] So, AT-001 would be between approximately 7-12 times shorter lived in human plasma compared to the reported human plasma half-life of zopolrestat (vide infra).
# [12] = humans, oral, SAD and MAD studies; cited from earlier work
smiles,measurement,setting,value
O=C(O)Cc1nn(Cc2nc3cc(C(F)(F)F)ccc3s2)c(=O)c2ccccc12 [zopolrestat],resting diastolic filling rates,"[1]; after 1 year of treatment, either group",no change
same,exercise LVEF,"[1]; after 1 year of zopolrestat treatment, P 0.001",increases
same,left ventricular stroke volume,"[1]; after 1 year of zopolrestat treatment, P 0.004",increases
same,resting left ventricular ejection fraction (LVEF),"[1]; after 1 year of zopolrestat treatment, P 0.02",increases
same,cardiac output,"[1]; after 1 year of zopolrestat treatment, P 0.03",increases
same,plasma half-life,[2],27.5 h
CC(/C=C1\SC(=S)N(CC(=O)O)C1=O)=C\c1ccccc1 [Epalrestat],plasma half-life,[3],relatively short
"CCCN(CCC)S(=O)(=O)c1ccc(C(=O)O)cc1 [probenecid, 4-(dipropylsulfamoyl)benzoic acid]",agonism of TRPV2 channel,[4],potent agonist
same,inotropic response,[5]; both in vitro and in vivo,positive inotropic response
same,cytosolic calcium (Ca2+) concentration,"[5]; murine heart, TRPV2 activated with probenecid",increases
same,apoptotic or arrhythmic pathways,[6],does not elicit
same,myocardial contractility,[6]; via increased calcium cycling on a beat-to-beat basis,increases
same,cardiac function,[7],improve cardiac function
same,outcomes,[8],improves outcomes
CCCN(CCC)S(=O)(=O)c1ccc(C(=O)[O-])cc1.[Na+] [sodium salt of probenecid],solubility,[9],77 mg/mL
O=C(O)CNS(=O)(=O)c1ccc(NC(=O)c2ccccc2)cc1 [N-[4-(benzoylaminophenyl)sulfonyl]glycine],"plasma profiles and pharmacokinetic parameters (AUC, clearance, mean residence time, volume of distribution)",[10],did not alter
O=C(O)Cc1nn(Cc2nc3cc(C(F)(F)F)ccc3s2)c(=O)c2nccnc12 [AT-001],times shorter lived in human plasma compared to zopolrestat,[11],7-12 times
same,median time of maximum concentration (Tmax),[12],1.75 to 3.38 h
same,plasma half-life,[12],1.74 to 3.38 h
